In PMC8401257, “Serjanic Acid Glycosides from Chenopodium hybridum L. with Good Cytotoxicity and Selectivity Profile against Several Panels of Human Cancer Cell Lines” (Molecules, 2021):

Columns and labels:
[1] = test system: HTB-140; assay: LDH cytotoxicity assay, melanoma HTB-140; type: cell-based; conditions: Homo sapiens
Description: (§1) Human cancer and the corresponding normal cell lines, used in the study, were grouped as follows: skin panel (melanoma HTB140, derived from metastatic site: lymph node, ATCC Hs 294T; malignant melanoma A375, ATCC CRL-1619; stage I primary melanoma WM793, RRID:CVCL 8787; skin keratinocytes HaCaT), prostate panel (prostate carcinoma Du145, derived from metastatic site: brain, ATCC HTB-81; grade IV prostate carcinoma, PC3, derived from metastatic site: bone, ATCC CRL-1435; prostate epithelial cells PNT2, ECACC 95012613), gastrointestinal panel (colorectal adenocarcinomas Caco2, ATCC HTB-37, and HT29, ATCC HTB-38; hepatocellular carcinoma HepG2, ATCC HB-8065), thyroid panel (follicular thyroid carcinoma FTC133, ECACC 94060901; undifferentiated thyroid carcinoma 8505C, ECACC 94090184; Nthy-ori 3–1, human thyroid follicular epithelial cells, ECACC 90011609), lung carcinoma A549 cells (ATCC CRM-CCL-185). Cells were grown at standard conditions (37 °C, 5% CO2, relative humidity) and culture media (DMEM/F12 for PNT2, WM 793, HT29, PC3, FTC133, 8505C, A549; DMEM Low Glucose for DU145; DMEM High Glucose for HTB140, A375, HaCaT; MEM with NEAA for Caco2), supplemented with 10% fetal bovine serum (FBS) and 1% antibiotics solution (10 000 U penicillin and 10 mg streptomycin/mL). All culture media and supplements were from Sigma-Aldrich.
(§2) Cell viability was measured with the lactate dehydrogenase (LDH) assay (Clontech, Mountain View, CA, USA), as described previously. Before the experiment, cells were seeded onto 96-well plates for 24 h (1.5 × 10^4 cells/well). The culture medium was replaced with a fresh medium containing different concentrations of the tested extracts (10–100 μg/mL, in DMSO) and incubated for 24 and 48 h. The absorbance was measured at 490 nm using a Biotek Synergy microplate reader. Cell viability was expressed as percent of the dead cells and IC50 values were also calculated. Each experiment was done in triplicate.
(§3) Data were analyzed using Statistica v. 13.3 (Stat Soft, TIBCO, Palo Alto, CA, USA). Each variable was expressed as mean (± SD). The statistical significance in cytotoxic assay was determined using Mann–Whitney U test. The value p < 0.05 was considered to indicate significant differences. NMR Spectra were analyzed using ACD/Labs ^1D NMR Processor 12.0 (Academic Edition) and JEOL DELTA v 5.3.1 (Jeol Resonance Inc., JEOL, Tokyo, Japan). In MS analysis MassLynx V 4.1 (Waters, Milford, MA, USA) and Compass DataAnalysis (Bruker, Billerica, MA, USA) software were used. IC50 values in cytotoxic assay were calculated using Origin Pro 2020b (OriginLab Corporation, Northampton, MA, USA).

[2] = test system: A375; assay: LDH cytotoxicity assay, malignant melanoma A375; type: cell-based; conditions: Homo sapiens
Description: as §1, §2, §3

[3] = test system: WM793; assay: LDH cytotoxicity assay, primary melanoma WM793; type: cell-based; conditions: Homo sapiens
Description: as §1, §2, §3

[4] = test system: HaCaT; assay: LDH cytotoxicity assay, skin keratinocytes HaCaT; type: cell-based; conditions: Homo sapiens
Description: as §1, §2, §3

[5] = test system: DU-145; assay: LDH cytotoxicity assay, prostate carcinoma DU-145; type: cell-based; conditions: Homo sapiens
Description: as §1, §2, §3

[6] = test system: PC3; assay: LDH cytotoxicity assay, prostate carcinoma PC3; type: cell-based; conditions: Homo sapiens
Description: as §1, §2, §3

[7] = test system: PNT2; assay: LDH cytotoxicity assay, normal prostate epithelial PNT2; type: cell-based; conditions: Homo sapiens
Description: as §1, §2, §3

[8] = test system: FTC133; assay: LDH cytotoxicity assay, follicular thyroid carcinoma FTC133; type: cell-based; conditions: Homo sapiens
Description: as §1, §2, §3

[9] = test system: 8505C; assay: LDH cytotoxicity assay, undifferentiated thyroid carcinoma 8505C; type: cell-based; conditions: Homo sapiens
Description: as §1, §2, §3

[10] = test system: Caco-2; assay: LDH cytotoxicity assay, colorectal adenocarcinoma Caco-2; type: cell-based; conditions: Homo sapiens
Description: as §1, §2, §3

[11] = test system: HT29; assay: LDH cytotoxicity assay, colorectal adenocarcinoma HT29; type: cell-based; conditions: Homo sapiens
Description: as §1, §2, §3

[12] = test system: HepG2; assay: LDH cytotoxicity assay, hepatocellular carcinoma HepG2; type: cell-based; conditions: Homo sapiens
Description: as §1, §2, §3

[13] = test system: A549; assay: LDH cytotoxicity assay, lung carcinoma A549; type: cell-based; conditions: Homo sapiens
Description: as §1, §2, §3

[14] = test system: Nthy-ori 3–1; assay: LDH cytotoxicity assay, thyroid follicular epithelial cells Nthy-ori 3–1; type: cell-based; conditions: Homo sapiens
Description: as §1, §2, §3

[15] = test system: HeLa cells; set-up: method as in doi:10.1007/s11101-009-9121-0; conditions: cited from earlier work

Compound | IC50 ([1]; HTB-140, 24 h) [µg/mL] | IC50 ([2]; A-375, A375, 24 h) [µg/mL] | IC50 ([3]; WM793, 24 h) [µg/mL] | IC50 ([4]; 24 h) [µg/mL] | IC50 ([5]; DU-145, 24 h) [µg/mL] | IC50 ([6]; PC-3, PC3, 24 h) [µg/mL] | IC50 ([7]; PNT2, 24 h) [µg/mL] | IC50 ([8]; FTC-133, FTC133, 24 h) [µg/mL] | IC50 ([9]; 24 h) [µg/mL] | IC50 ([10]; Caco-2, 24 h) [µg/mL] | IC50 ([11]; HT-29, HT29, 24 h) [µg/mL] | IC50 ([12]; HepG2, 24 h) [µg/mL] | IC50 ([13]; A549, 24 h) [µg/mL] | IC50 ([1]; HTB-140, 48 h) [µg/mL] | IC50 ([2]; A-375, A375, 48 h) [µg/mL] | IC50 ([3]; WM793, 48 h) [µg/mL] | IC50 ([4]; 48 h) [µg/mL] | IC50 ([5]; DU-145, 48 h) [µg/mL] | IC50 ([6]; PC-3, PC3, 48 h) [µg/mL] | IC50 ([7]; PNT2, 48 h) [µg/mL] | also measured
COc1cccc2c1C(=O)c1c(O)c3c(c(O)c1C2=O)C[C@@](O)(C(=O)CO)C[C@@H]3O[C@H]1C[C@H](N)[C@H](O)[C@H](C)O1 [Doxorubicin, reference compound] | 5.71 | 0.59 | > 40 | 4.68 | 3.18 | > 50 | 1.38 | 4.02 | > 40 | 3.44 | 1.53 | 1.03 | 1.73 | – | – | – | – | – | – | – | –
COC(=O)[C@@]1(C)CC[C@]2(C(=O)O[C@@H]3O[C@H](CO)[C@@H](O)[C@H](O)[C@H]3O)CC[C@]3(C)C(=CC[C@@H]4[C@@]5(C)CC[C@H](O[C@@H]6OC[C@H](O)[C@H](O)[C@H]6O[C@@H]6O[C@@H](C)[C@H](O)[C@@H](O)[C@H]6O)C(C)(C)[C@@H]5CC[C@]43C)[C@@H]2C1 [Compound 1, 3-O-α-L-Rhamnopyranosyl-(1→2)-α-L-Arabinopyranosyl Serjanic Acid 28-O-β-D-Glucopyranosyl Ester] | 11.7 | 32.4 | 17.2 | > 100 | 16.6 | 34.3 | > 100 | > 100 | > 100 | 28.7 | 57.9 | > 100 | 61.3 | 7.95 | 20.3 | 9.92 | > 100 | 7.25 | 19.5 | > 100 | IC50 ([8]; FTC-133, FTC133, 48 h): 76.3 µg/mL; IC50 ([9]; 48 h): > 100 µg/mL; IC50 ([14]; Nthy-ori 3–1, 24 h): > 100 µg/mL; IC50 ([14]; Nthy-ori 3–1, 48 h): > 100 µg/mL; IC50 ([10]; Caco-2, 48 h): 15.3 µg/mL; IC50 ([11]; HT-29, HT29, 48 h): 22.8 µg/mL; IC50 ([12]; HepG2, 48 h): 76.6 µg/mL; IC50 ([13]; A549, 48 h): 34.7 µg/mL
COC(=O)[C@@]1(C)CC[C@]2(C(=O)O[C@@H]3O[C@H](CO)[C@@H](O)[C@H](O)[C@H]3O)CC[C@]3(C)C(=CC[C@@H]4[C@@]5(C)CC[C@H](O[C@@H]6OC[C@H](O)[C@H](O)[C@H]6O)C(C)(C)[C@@H]5CC[C@]43C)[C@@H]2C1 [Compound 2, 3-O-α-L-Arabinopyranosyl Serjanic Acid 28-O-β-D-Glucopyranosyl Ester] | 39.2 | 39.4 | 32.2 | > 100 | 33.1 | 23.8 | > 100 | > 100 | > 100 | 20.7 | 10.7 | 54.2 | 41.7 | 25.1 | 29.3 | 16.8 | > 100 | 23.5 | 18.3 | > 100 | IC50 ([8]; FTC-133, FTC133, 48 h): > 100 µg/mL; IC50 ([9]; 48 h): > 100 µg/mL; IC50 ([14]; Nthy-ori 3–1, 24 h): > 100 µg/mL; IC50 ([14]; Nthy-ori 3–1, 48 h): > 100 µg/mL; IC50 ([10]; Caco-2, 48 h): 12.6 µg/mL; IC50 ([11]; HT-29, HT29, 48 h): 6.48 µg/mL; IC50 ([12]; HepG2, 48 h): 39 µg/mL; IC50 ([13]; A549, 48 h): 28.3 µg/mL; cytotoxicity towards HeLa cells [15]: inactive
